Test results: patent US20170000903A1, “CRYSTALLINE CELLULOSE GEL-BASED CRYPTANDS, SURFACE ACTIVE AGENTS, EMULSIONS AND VESICLES” (UNIVERSITY OF SASKATCHEWAN, priority 2013, published 2017)

Legend:
[1] = cited from earlier work
[2] = Solubility of Clotrimazole in water / methanol, dark field microscopy; type: physicochemical
Text: The methanol solution was then mixed with 1% cellulose gel (treatment) and water (positive control). All samples were examined under a dark field microscope.

[3] = Dye release from crystalline cellulose gel to liquid phase (visual and spectrophotometric); type: physicochemical; conditions: for release pattern from crystalline cellulose gel (very slow, slow, fast, very fast): categorised from absorbance in the liquid phase, 0-72 hours; for dye release to liquid phase, absorbance: over 72 hours, 10 ml RO water over gel, at absorbance maximum of dye, 4 AU = saturation; for colour of solution above the precipitate after 72 hours (dye diffusion out of cellulose crystals): 72 hours at room temperature (approximately 21-22° C.), visual
Procedure: Approximately 2 ml aliquots of 3% w/v crystalline cellulose gel samples containing small solid cellulose crystals were thoroughly mixed with respective model dye solutions and incubated for 30 minutes at room temperature. The stained samples where then centrifuged. The supernatant was decanted, and the pellets containing crystalline cellulose were washed several times with reverse osmosis water and centrifuged. The cycles of washing and centrifugation were repeated until water in which cellulose gel was suspended was clear. After the final wash, small samples of each gel were taken for microscopic examination, and the gels in each tube were covered with a 10 ml column of RO water. These preparations served as media for monitoring the rate of dye release from crystalline cellulose gel to the surrounding liquid phase. Following a few minutes of sample equilibration, 500 μl of the liquid phase was withdrawn from each preparation for spectroscopic measurements to establish absorbance values at time 0. Subsequently, 500 μl samples of the liquid phase were collected at 2, 6, 12, 24, 48, and 72 hour intervals for monitoring of dye release to the liquid phase from the cellulose matrix over time.

[4] = 1 mg per ml, dark field microscope

| SMILES | solubility in organic solvents (known property) [1] | solubility in water (known property) [1] | solubility in methanol [2, 4] | solubility in water [2, 4] | behaviour of methanol solution mixed with water ([2]; methanol solution 1 mg per ml mixed with water) | release pattern from crystalline cellulose gel (very slow, slow, fast, very fast) [3] | dye release to liquid phase, absorbance [3] [AU] | colour of solution above the precipitate after 72 hours (dye diffusion out of cellulose crystals) [3] |
| --- | --- | --- | --- | --- | --- | --- | --- | --- |
| Clc1ccccc1C(c1ccccc1)(c1ccccc1)n1ccnc1 [Clotrimazole] | soluble in acetone, chloroform, methanol and ethanol | practically insoluble in water | totally dissolved in methanol | not soluble in water | fine crystals precipitated |  |  |  |
| CCN(CC)c1ccc(C(=C2C=CC(=[N+](CC)CC)C=C2)c2ccccc2)cc1 [brilliant green, Brilliant Green] |  |  |  |  |  | very fast | 4 |  |
| Nc1c(/N=N/c2ccc(-c3ccc(/N=N/c4cc(S(=O)(=O)[O-])c5ccccc5c4N)cc3)cc2)cc(S(=O)(=O)[O-])c2ccccc12.[Na+].[Na+] [congo red, Congo Red] |  |  |  |  |  | slow | 0.128 | diffused out of the precipitated cellulose crystals |
| Oc1cc2c(cc1O)[C@@H]1c3ccc(O)c(O)c3OC[C@]1(O)C2 [haematoxylin, Hematoxilin] |  |  |  |  |  | slow | 0.09 | diffused out of the precipitated cellulose crystals |
| CCN(Cc1cccc(S(=O)(=O)[O-])c1)c1ccc(C(=C2C=CC(=[N+](CC)Cc3cccc(S(=O)(=O)O)c3)C=C2)c2ccc(S(=O)(=O)O)cc2)cc1 [light green, Light Green] |  |  |  |  |  | very fast | 4 |  |
| CN(C)c1ccc(C(=C2C=CC(=[N+](C)C)C=C2)c2ccccc2)cc1.[Cl-] [malachite green, Malachite Green] |  |  |  |  |  | slow | 0.32 |  |
| CN(C)c1ccc2nc3ccc(=[N+](C)C)cc-3sc2c1 [methylene blue, Methylene Blue] |  |  |  |  |  | very slow | 0.025 | slight bluish hue |
| Cc1cc2nc3cc(C)c(N)cc3[n+](-c3ccccc3)c2cc1N [safranine, Safranine] |  |  |  |  |  | slow | 0.08 | slight pinkish hue |
